{
  "source": "patent US8501781B2",
  "about": "(priority 2009, dated 2013)",
  "assay": "logP by HPLC (EEC Directive 79/831 Annex V.A8)",
  "format": "physicochemical",
  "key": {"[1]": {"conditions": "[b] LC-MS, acidic range, pH 2.7, 0.1% aqueous formic acid and acetonitrile"}, "[2]": {"conditions": "[c] LC-MS, neutral range, pH 7.8, 0.001 molar aqueous ammonium bicarbonate and acetonitrile"}},
  "data": [
    {"compound": "Cc1ccc(C)c(NC(=O)N2CCC(c3nc(C(=O)OCc4ccccc4I)cs3)CC2)c1", "note": "[Example 136]", "values": [
      {"measurement": "logP", "setting": "[1]", "result": "3.96^[b]"}
    ]},
    {"compound": "O=C(Oc1cccc2ccccc12)c1csc(C2CCN(C(=O)Cc3cc(C(F)(F)F)ccc3Cl)CC2)n1", "note": "[Example 11]", "values": [
      {"measurement": "logP", "setting": "[1]", "result": "4.56^[b]"}
    ]},
    {"compound": "Cc1ccc(C)c(NC(=O)N2CCC(c3nc(C(=O)OCc4c(Cl)cccc4Cl)cs3)CC2)c1", "note": "[Example 137]", "values": [
      {"measurement": "logP", "setting": "[1]", "result": "3.97^[b]"}
    ]},
    {"compound": "COc1ccc(OC)c(NC(=O)N2CCC(c3nc(C(=O)OCc4ccccc4Br)cs3)CC2)c1", "note": "[Example 103]", "values": [
      {"measurement": "logP", "setting": "[1]", "result": 3.83},
      {"measurement": "logP", "setting": "[2]", "result": 3.81}
    ]},
    {"compound": "Cn1ncc(CC(=O)N2CCC(c3nc(C(=O)Oc4cccc5ccccc45)cs3)CC2)c1Cl", "note": "[Example 5]", "values": [
      {"measurement": "logP", "setting": "[1]", "result": "3.00^[b]"}
    ]},
    {"compound": "Cc1cc(C(F)(F)F)nn1CC(=O)N1CCN(c2nc(C(=O)SCc3ccc(Cl)cc3Cl)cs2)CC1", "note": "[Example 50]", "values": [
      {"measurement": "logP", "setting": "[1]", "result": 4.79},
      {"measurement": "logP", "setting": "[2]", "result": 4.87}
    ]},
    {"compound": "O=C(OC1CCCCC1)c1csc(C2CCN(C(=O)Cc3ccsc3)CC2)n1", "note": "[Example 8]", "values": [
      {"measurement": "logP", "setting": "[1]", "result": "3.42^[b]"}
    ]},
    {"compound": "Cc1cc(C(F)(F)F)nn1CC(=O)N1CCN(c2nc(C(=O)OC3CCCC(C(F)(F)F)C3)cs2)CC1", "note": "(stereo not shown) [Example 32]", "values": [
      {"measurement": "logP", "setting": "[2]", "result": "3.81^[c]"}
    ]},
    {"compound": "Cc1ccc(C)c(NC(=O)N2CCC(c3nc(C(=O)OCc4c(F)cccc4Cl)cs3)CC2)c1", "note": "[Example 120]", "values": [
      {"measurement": "logP", "setting": "[1]", "result": "3.66^[b]"}
    ]},
    {"compound": "Cc1ccc(Br)cc1CC(=O)N1CCC(c2nc(C(=O)OC3CCCCC3)cs2)CC1", "note": "[Example 17]", "values": [
      {"measurement": "logP", "setting": "[1]", "result": "4.47^[b]"}
    ]},
    {"compound": "COCCOCC(=O)N1CCC(c2nc(C(=O)OC3CCCCC3)cs2)CC1", "note": "[Example 174]", "values": [
      {"measurement": "logP", "setting": "[a] acidic range, pH 2.3, 0.1% aqueous phosphoric acid and acetonitrile", "result": "2.37^[a]"}
    ]}
  ]
}
